Measurements reported in the NIST ThermoML archive (doi:10.1016/j.jct.2015.02.020).

Legend:
[1] = 101.33 kPa, Liquid; for viscosity: Falling or rolling sphere viscometry; for speed of sound: Sing-around technique in a fixed-path interferometer; for mass density: Vibrating tube method
[2] = refractive index (Na D-line) (dimensionless); details: 101.33 kPa, Liquid, Standard Abbe refractometry

CC[n+]1ccc(C)cc1.O=S(=O)([N-]S(=O)(=O)C(F)(F)F)C(F)(F)F
Details | mass density, [1] [kg/m3] | refractive index, [2] | speed of sound, [1] [m/s] | viscosity, [1] [mPa·s]
293.15 K | 1491.6 | 1.44562 | 1275.3 | 40.01
298.15 K | 1486.67 | 1.44412 | 1263.8 | 32.83
303.15 K | 1481.76 | 1.4426 | 1252.4 | 27.39
308.15 K | 1476.87 | 1.44108 | 1241.2 | 23.17
313.15 K | 1472 | 1.43954 | 1230.1 | 19.8
318.15 K | 1467.15 | 1.43794 | 1219.2 | 17.17
323.15 K | 1462.32 | 1.43641 | 1208.3 | 15
328.15 K | 1457.52 | 1.43493 | 1197.3 | 13.26
333.15 K | 1452.73 | 1.43344 | 1187 | 11.82
338.15 K | 1447.96 | 1.43195 | 1176.5 | 10.57
343.15 K | 1443.21 | 1.43047 | 1166.1 | 9.51

CC[n+]1cccc(C)c1.O=S(=O)([N-]S(=O)(=O)C(F)(F)F)C(F)(F)F
Details | mass density, [1] [kg/m3] | refractive index, [2] | speed of sound, [1] [m/s] | viscosity, [1] [mPa·s]
293.15 K | 1493.4 | 1.44503 | 1270.6 | 47.85
298.15 K | 1488.54 | 1.44355 | 1259.6 | 39.08
303.15 K | 1483.69 | 1.44204 | 1248.5 | 32.33
308.15 K | 1478.86 | 1.44056 | 1237.5 | 27.12
313.15 K | 1474.05 | 1.43904 | 1226.7 | 23.06
318.15 K | 1469.26 | 1.43751 | 1216 | 19.81
323.15 K | 1464.49 | 1.43599 | 1205.4 | 17.32
328.15 K | 1459.74 | 1.43451 | 1194.9 | 15.15
333.15 K | 1455.01 | 1.43304 | 1184.6 | 13.39
338.15 K | 1450.3 | 1.4316 | 1174.3 | 11.92
343.15 K | 1445.6 | 1.43014 | 1164.2 | 10.67

CC[n+]1ccccc1C.O=S(=O)([N-]S(=O)(=O)C(F)(F)F)C(F)(F)F
Details | mass density, [1] [kg/m3] | refractive index, [2] | speed of sound, [1] [m/s] | viscosity, [1] [mPa·s]
293.15 K | 1510.22 | 1.44938 | 1310.9 | 97.02
298.15 K | 1505.35 | 1.44789 | 1299.5 | 75.84
303.15 K | 1500.5 | 1.4464 | 1288.5 | 60.69
308.15 K | 1495.66 | 1.44493 | 1277.3 | 49.76
313.15 K | 1490.85 | 1.44343 | 1266.3 | 41.04
318.15 K | 1486.06 | 1.44181 | 1255.4 | 34.3
323.15 K | 1481.29 | 1.44037 | 1244.6 | 29.05
328.15 K | 1476.54 | 1.4388 | 1234 | 24.86
333.15 K | 1471.81 | 1.43744 | 1223.4 | 21.51
338.15 K | 1467.11 | 1.43599 | 1213 | 18.71
343.15 K | 1462.42 | 1.43454 | 1202.7 | 16.54

CC[n+]1ccccc1.O=S(=O)([N-]S(=O)(=O)C(F)(F)F)C(F)(F)F [1-ethylpyridinium bis[(trifluoromethyl)sulfonyl]imide]
Details | mass density, [1] [kg/m3] | refractive index, [2] | speed of sound, [1] [m/s] | viscosity, [1] [mPa·s]
293.15 K | 1540.83 | 1.44227 | 1279.1 | 50.27
298.15 K | 1535.84 | 1.44091 | 1268.1 | 41.08
303.15 K | 1530.87 | 1.43939 | 1257.1 | 34.17
308.15 K | 1525.92 | 1.43788 | 1246.3 | 28.79
313.15 K | 1520.99 | 1.43637 | 1235.6 | 24.58
318.15 K | 1516.08 | 1.4349 | 1225 | 21.18
323.15 K | 1511.2 | 1.43339 | 1214.5 | 18.48
328.15 K | 1506.34 | 1.43193 | 1204.2 | 16.26
333.15 K | 1501.5 | 1.43048 | 1193.9 | 14.35
338.15 K | 1496.67 | 1.42905 | 1183.8 | 12.79
343.15 K | 1491.87 | 1.42762 | 1173.8 | 11.48
